Results on five molecules are retold here after patent US11690935B2, “Thermosensitive peptide hydrogel” (NATIONAL CHIAO TUNG UNIVERSITY, priority 2020, dated 2023).

The structures appear in SMILES notation. Residues, ends and D or L forms follow the SMILES beside them. *: point of attachment. Phenylacetyl(2,3,4,5,6-F5) = O=C(Cc1c(F)c(F)c(F)c(F)c1F)*

Series [1] is described as follows: Cell viability test (MTT assay). The format is cell-based. The conditions noted are these: human, hMSC (3A6) cells, read-out: Survival rate. The procedure: The biocompatibilities of different peptide molecules were measured by a cell viability test (MTT assay). hMSC (3A6) cells were seeded in a 24-well plate with a density of 50,000 cells in each well, and the hMSC (3A6) cells were cultured for 24 hours, wherein the 24-well plate comprises a culture medium (DMEM) of 0.5 mL, and the DMEM comprises 10% FBS and 1% penicillin. When seeded in the cells, each of the wells was added with the compounds of different concentrations (0.5 and 5 wt %). After 24 and 48 hours, the original culture medium was replaced by a fresh culture medium, wherein the fresh culture medium was supplemented with a MTT reagent of 0.5 mL (4 mg/mL). After another 4 hours, the culture medium containing the MTT reagent was removed, and DMSO (0.5 mL per well) was then added in order to dissolve formazan crystals. Each of the 24-well plate was transferred to a 96-well plate. The optical density of the cells was measured at 595 nm by a light absorption plate reader (Sunrise, DV990/BV4 GDV Programmable MPT reader). The cells without treated by the compounds were used as the control group. The cell viability percentage, that is, viability (%), of the cells was calculated according to the following Formula (2).
[formula] wherein ODsample represented the optical density of the sample, and ODcontrol represented the optical density of the control group.
In some embodiments of the invention, a cell viability test (MTT assay) was used for a colorimetric assay to analyze the biocompatibilities of the samples. In detail, a 0.5 wt % 5F-FF, a 0.5 wt %: 4.5 wt % 5F-FF/PEG1500, a 0.5 wt %: 4.5 wt % 5F-FF/PEG2000, and a 0.5 wt %: 4.5 wt % 5F-FF/PEG3000 (hydrogels under neutral conditions), and the immortalized human mesenchymal stem cells (hMSC, 3a6) was selected for testing, wherein the results were shown in FIG. 11. FIG. 11 was a diagram showing cell viability of cells treated with 0.5 wt % 5F-FF, 0.5 wt %: 4.5 wt % 5F-FF/PEG1500, 0.5 wt %: 4.5 wt % 5F-FF/PEG2000 and 0.5 wt %: 4.5 wt % 5F-FF/PEG3000 according to some embodiments of the invention.
Background: Tetrazolium assays rely on reduction of a dye to a coloured formazan, in cell work by metabolically active cells.

Series [2] is described as follows: Gel formation / sol-gel transition by vial inverting method. It counts as physicochemical. The conditions noted are these: for CGC: Table 5, critical gelation concentration; for Time at room temperature to convert again into a sol state: after gelation at 37° C., regardless of the concentration. How it is done: In a glass bottle of 2 mL (diameter 10 mm) with a screw cap, different compounds with different concentrations were weighed to perform the gelation. A sodium hydroxide solution was added to the suspension in order to adjust the pH value, and vortex and treatment of the sonication were alternately used until a clear compound solution was obtained. Polyethylene glycols having different molecular weights such as 300 g/mol, 600 g/mol, 1000 g/mol, 1500 g/mol, 2000 g/mol, and 3000 g/mol, etc. were also dissolved in the deionized water in order to obtain the polyethylene glycol solution, and the desired concentrations were further controlled. After the polyethylene glycols were completely dissolved, the polyethylene glycol solution was then mixed with the compound solution in order to obtain a compound/PEG solution. By adding hydrochloric acid dropwise, the pH value of the compound/PEG solution was adjusted to a neutral pH value of 7.0-7.4.
Gel formation was determined by a vial inverting method. After the equilibrium at room temperature, a glass bottle with the sample was immersed into a water bath of 37° C. in equilibrium or in an incubator of 37° C. for 30 minutes. After flipping the glass bottle, the sol-gel transition was determined. If the sample without floating was observed within 1 minute, the sample was considered as a gel. […] Each of the temperature data point represented an average temperature of three measurements. At a physiologically relevant temperature of 37° C., the gelation time as a function of the concentration of the block copolymer was measured in the water bath of 37° C.

Series [3] in a line: Hydrogel degradation in PBS at 37° C. The format is physicochemical. The conditions noted are these: on the seventh day, PBS pH 7.4, 37° C. The procedure: Hydrogel degradation was performed in a phosphate buffered solution (PBS) at 37° C. with 5% of CO2. In a 4 mL glass bottle, various 0.3 mL hydrogels were prepared, and 3 mL PBS was added to each of the glass bottles having the hydrogel. At some specific data points, the PBS was removed. The hydrogel was freeze-dried by the freeze-drying method, and the hydrogel degradation rate was calculated according to the following Formula (1),
[formula] wherein W (%) represented the hydrogel degradation rate, Wi represented the initial weight of the hydrogel at day 0, and Wd represented the dry weight of the hydrogel at day of a specific number. Cell Viability Test
In some embodiments of the invention, accordingly, with the remaining conditions the same, the stability of the thermosensitive hydrogel was tested by immersing the samples into a PBS with the pH value of 7.4 at 37° C., and the result thereof was shown in FIG. 10. FIG. 10 was a diagram showing specific degradation percentage over time of the 5F-FF, 5F-FF/PEG300, 5F-FF/PEG600, 5F-FF/PEG1000, 5F-FF/PEG1500, 5F-FF/PEG2000, and 5F-FF/PEG3000 alone in the PBS according to some embodiments of the invention.

`O=C(Cc1c(F)c(F)c(F)c(F)c1F)N[C@@H](Cc1ccccc1)C(=O)N[C@@H](Cc1ccccc1)C(=O)O` [Sample 5F-FF, 2,3,4,5,6-fluorobenzyl-diphenylalanine]: the viability at 24 h, 0.5 wt % in series [1] (day 1, hMSC (3A6), hydrogels under neutral conditions) is 84%. In addition, the viability at 48 h, 0.5 wt % in series [1] (day 2, hMSC (3A6)) came out at 88.6%. Besides, the viability at 72 h, 0.5 wt % in series [1] (day 3, hMSC (3A6)) amounted to 68.2%. Further, the viability at 120 h, 0.5 wt % in series [1] (day 5, hMSC (3A6)) turned out to be 73.3%. Further, the viability at 168 h, 0.5 wt % in series [1] (day 7, hMSC (3A6)) was 84%. The “Time Tsol-gel” value in series [2] (5F-FF with PEG of different molecular weights, thermosensitive gelation at 37° C., pH 7.0) is “Gel”. In series [2] (5F-FF, Table 2), the “CGC (critical gelation concentration)” value is given as 0.5 wt %. In series [3], the Degradation percentage was 35.75%.

`O=C(Cc1c(F)cc(F)cc1F)N[C@@H](Cc1ccccc1)C(=O)N[C@@H](Cc1ccccc1)C(=O)O` [Sample 3F-FF] came in with a CGC in series [2] (pH 7.0) of 0.5 wt %.

`O=C(Cc1ccc(F)cc1)N[C@@H](Cc1ccccc1)C(=O)N[C@@H](Cc1ccccc1)C(=O)O` [Sample 1F-FF] gave a CGC in series [2] (pH 7.0) of 1 wt %. Besides, the “State at 37° C.” value in series [2] (Table 6, 1F-FF with PEG of different molecular weights, pH 7.0) is recorded as “Gel”. In addition, the “Detailed description of the sample” value in series [2] (Table 6, after cooling at 0° C.) is on record as “Still hydrosol”. For the same molecule, the “State at 0° C. (Surrounded by ice cubes)” value in series [2] (Table 6, gel-sol behavior, pH 7.0) was “Gel”.

Take `CC(NC(=O)C(Cc1cnc[nH]1)NC(=O)CNC(=O)C(Cc1ccccc1)NC(=O)C(Cc1ccccc1)NC(=O)Cc1c(F)c(F)c(F)c(F)c1F)C(=O)NC(C(=O)NC(CC(=O)O)C(=O)O)C(C)C` (stereo not drawn) [Sample 5F-FFGHAVD] ({Phenylacetyl(2,3,4,5,6-F5)}-FFGHAVD-OH; configuration not given here): in series [2], the “Time at room temperature to convert again into a sol state” value amounted to 20 min.

On to `N=C(N)NCCCC(NC(=O)C(Cc1ccccc1)NC(=O)C(Cc1ccccc1)NC(=O)Cc1c(F)c(F)c(F)c(F)c1F)C(=O)NCC(=O)NC(CC(=O)O)C(=O)O` (stereo not drawn) [Sample 5F-FFRGD] ({Phenylacetyl(2,3,4,5,6-F5)}-FFRGD-OH; configuration not given here), for which, in series [2], the “Time at room temperature to convert again into a sol state” value came out at 20 min.
